From publication PMC9077138, “An investigation on 3-acetyl-7-methoxy-coumarin Schiff bases and their Ru(II) metallates with potent antiproliferative activity and enhanced LDH and NO release” (RSC Advances, 2018)
Read-outs that look alike come from different tables or passages of the source.

Assays:
P. aeruginosa = experiment: In vitro antibacterial assay (zone of inhibition, MIC); assay type: cell-based, Pseudomonas aeruginosa
Method: (§1) The free ligands and their cyclometallated ruthenium(II) carbonyl complexes were screened for their in vitro antimicrobial activity against certain pathogenic bacterial and fungal species at three different concentrations using disc diffusion method.
(§2) Antimicrobial activities of [RuHClCO(PPh3)3], ligands H2L^1–4 and new organometallic Ru(II) complexes (1–4) were evaluated by agar well diffusion method[76] as reported, by taking Staphylococcus aureus, Streptococcus pneumonie, Pseudomonas aeruginosa, Salmonella paratyphi and fungus such as Candida albicans, Trichophyton rubrum, Aspergillus niger, Aspergillus fumigatus and Candida tropicalis. The above said all test organisms were obtained from the MTCC, Chandigarh, India and Microbiological laboratory, Coimbatore, Tamil Nadu, India. The antimicrobial activity of the test compounds was checked with various concentrations (25 μg ml^−1, 50 μg ml^−1 and 100 μg ml^−1) against all the test pathogens. Gentamicin and ketoconazole were used as positive controls to study the antibacterial and antifungal activities respectively. Each experiment was performed in triplicate and the results are represented as average zone of inhibition and minimum inhibitory concentration of all the test pathogens.

C. albicans = experiment: In vitro antifungal assay (zone of inhibition, MIC); assay type: cell-based, Candida albicans
Method: as §1, §2

S. paratyphi = experiment: In vitro antibacterial assay (zone of inhibition, MIC); assay type: cell-based, Salmonella paratyphi
Source text: The free ligands and their cyclometallated ruthenium(II) carbonyl complexes were screened for their in vitro antimicrobial activity against certain pathogenic bacterial and fungal species at three different concentrations using disc diffusion method. […] Tested complexes had better antimicrobial activity than the ligands against all pathogens. This may be explained by Tweedy's chelation theory.[61] Coordination of ligands reduce the polarity of the metal ion essentially by partial sharing of its positive charge with the donor groups within the chelate ring system formed during the coordination and leading to the increase in lipophilic nature of the central metal atom, which favours the effective permeation through the lipid layer of microorganism.[61,62] […] When tested against T. rubrum, the activity of the complexes in the order of 3 > 2 > 1 > 4. In antibacterial studies, the complex 3 was effective against S. aureus followed by complex 2, 1 and 4 and in the case of S. pneumonie the activity of the complexes follows the order of 3 > 1 > 4 > 2. […] When tested against S. paratyphi complex 1 stood out as good followed by the complexes 4, 3 and 2 respectively.
as §2

S. pneumonie = experiment: as above; assay type: cell-based, Streptococcus pneumonie
Method: as §1, §2

S. aureus = experiment: as above; assay type: cell-based, Staphylococcus aureus
Method: as §1, §2

Aspergillus fumigatus = experiment: In vitro antifungal assay (zone of inhibition, MIC); assay type: cell-based
Method: as §1, §2

Candida tropicalis = experiment: as above; assay type: cell-based
Method: as §1, §2

Aspergillus niger = experiment: as above; assay type: cell-based
Method: as §1, §2

Trichophyton rubrum = experiment: as above; assay type: cell-based
Method: as §1, §2

[1] = tested on: human lung carcinoma cancer cell line A549; experiment: MTT cytotoxicity assay; assay type: cell-based; details: read-out: IC50 values A549
Source text: (§3) The DNA/protein binding studies, antioxidant and antimicrobial studies had shown that the ligands and ruthenium(II) complexes studied here have therapeutic potentials and were subjected to study their anticancer activity. A number of coumarin derivatives have shown considerable anticancer activity against a number of cell lines. All the 3-acetyl-7-methoxy-coumarin-4(N)-substituted thiosemicarbazone ligands, metal precursor [RuHClCO(PPh3)3] and their new cyclometallated Ru(II) complexes were assessed for their cytotoxicity with two human derived cell lines namely human lung carcinoma (A549) and human breast cancer cells (MCF-7) by using MTT assay. For comparison purpose, cisplatin was used as a positive control under identical conditions.
(§4) Cytotoxic activity of the compounds was tested with human lung cancer cell lines A549, human breast cancer cell lines MCF-7 and human normal keratinocyte cells (HaCaT) by using MTT assay, which was done according to the earlier literature methods[77] and IC50 values obtained from nonlinear regression using GraphPad Prism 5.[78] The LDH release[79] and NO release[80] assays of the compounds was evaluated by the earlier reported methods.

[2] = tested on: human breast cancer cell line MCF-7; experiment: MTT cytotoxicity assay; assay type: cell-based; details: read-out: IC50 values MCF-7
Source text: as §3, §4

CNC1=N[N+]2=C(C)c3[c](c4ccc(OC)cc4oc3=O)[Ru-4]2([C]#[O+])([P+](c2ccccc2)(c2ccccc2)c2ccccc2)([P+](c2ccccc2)(c2ccccc2)c2ccccc2)[S]1 [Complex 2, [Ru(7MAC-mtsc)(CO)(PPh3)2]]
Minimum inhibitory concentration (MIC); head: IC50 VALUES (P. aeruginosa; P. aeruginosa): 14.81 ± 0.19 µM | Zone of inhibition (P. aeruginosa; P. aeruginosa, 50 µg/ml): 12.12±0.13 mm | Zone of inhibition (P. aeruginosa; P. aeruginosa, 100 µg/ml): 17.95±0.21 mm | Minimum inhibitory concentration (MIC); head: IC50 VALUES (C. albicans; C. albicans): 13.59 ± 0.15 µM | Zone of inhibition (C. albicans; C. albicans, 50 µg/ml): 12.45±0.31 mm | Zone of inhibition (C. albicans; C. albicans, 100 µg/ml): 16.28±0.10 mm | Zone of inhibition (S. paratyphi; 50 µg/ml): 13.41±0.01 mm | Zone of inhibition (S. paratyphi; 100 µg/ml): 18.45±0.51 mm | Minimum inhibitory concentration (MIC); head: IC50 VALUES (S. pneumonie; S. pneumonie): 16.43 ± 0.09 µM | Zone of inhibition (S. pneumonie; S. pneumonie, 50 µg/ml): 13.21±0.13 mm | Zone of inhibition (S. pneumonie; S. pneumonie, 100 µg/ml): 17.14±0.12 mm | Minimum inhibitory concentration (MIC); head: IC50 VALUES (S. aureus; S. aureus): 15.90 ± 0.16 µM | Zone of inhibition (S. aureus; S. aureus, 50 µg/ml): 13.12±0.41 mm | Zone of inhibition (S. aureus; S. aureus, 100 µg/ml): 18.65±0.13 mm | Minimum inhibitory concentration (MIC); head: IC50 VALUES (Aspergillus fumigatus): 14.70 ± 0.1 µM | Zone of inhibition (Aspergillus fumigatus; 50 µg/ml): 12.61±0.71 mm | Zone of inhibition (Aspergillus fumigatus; 100 µg/ml): 17.36±0.45 mm | Minimum inhibitory concentration (MIC); head: IC50 VALUES (Candida tropicalis): 13.46 ± 0.15 µM | Zone of inhibition (Candida tropicalis; 50 µg/ml): 12.64±0.15 mm | Zone of inhibition (Candida tropicalis; 100 µg/ml): 19.52±0.27 mm | Minimum inhibitory concentration (MIC); head: IC50 VALUES (Aspergillus niger): 14.67 ± 0.31 µM | Zone of inhibition (Aspergillus niger; 50 µg/ml): 11.56±0.24 mm | Zone of inhibition (Aspergillus niger; 100 µg/ml): 19.63±0.12 mm | Minimum inhibitory concentration (MIC); head: IC50 VALUES (Trichophyton rubrum): 15.14 ± 0.24 µM | Zone of inhibition (Trichophyton rubrum; 50 µg/ml): 12.16±0.15 mm | Zone of inhibition (Trichophyton rubrum; 100 µg/ml): 17.45±0.35 mm | IC50 ([1]; MTT, 48 h): 2.93 ± 0.07 µM | IC50 ([2]; MTT, 48 h): 2.62 ± 0.07 µM

COc1ccc2cc(C(C)=NNC(N)=S)c(=O)oc2c1 [H2L^1, ((1E)-1-(1-(7-methoxy-2-oxo-2H-chromen-3-yl)ethylidene)thiosemicarbazone)]
zone of inhibition at 50 µg/mL (P. aeruginosa; Pseudomonas aeruginosa): 13.2 ± 0.41 mm | zone of inhibition at 100 µg/mL (P. aeruginosa; Pseudomonas aeruginosa): 18.1 ± 0.24 mm | zone of inhibition at 50 µg/mL (C. albicans; Candida albicans): 11.2 ± 0.14 mm | zone of inhibition at 100 µg/mL (C. albicans; Candida albicans): 17 ± 0.91 mm | zone of inhibition at 50 µg/mL (S. paratyphi; Salmonella enterica, 50 µg/ml): 13.2 ± 0.77 mm | zone of inhibition at 100 µg/mL (S. paratyphi; Salmonella enterica, 100 µg/ml): 16.5 ± 0.46 mm | zone of inhibition at 50 µg/mL (S. pneumonie; Streptococcus): 12.38 ± 0.12 mm | zone of inhibition at 100 µg/mL (S. pneumonie; Streptococcus): 16.4 ± 0.31 mm | zone of inhibition at 50 µg/mL (S. aureus; Staphylococcus aureus): 13 ± 0.23 mm | zone of inhibition at 100 µg/mL (S. aureus; Staphylococcus aureus): 17.19 ± 0.16 mm | zone of inhibition at 50 µg/mL (Aspergillus fumigatus): 11.2 ± 0.73 mm | zone of inhibition at 100 µg/mL (Aspergillus fumigatus): 17.4 ± 0.22 mm | zone of inhibition at 50 µg/mL (Candida tropicalis): 11.93 ± 0.01 mm | zone of inhibition at 100 µg/mL (Candida tropicalis): 17.4 ± 0.51 mm | zone of inhibition at 50 µg/mL (Aspergillus niger): 13.1 ± 0.33 mm | zone of inhibition at 100 µg/mL (Aspergillus niger): 17.41 ± 0.14 mm | zone of inhibition at 50 µg/mL (Trichophyton rubrum): 13.2 ± 0.16 mm | zone of inhibition at 100 µg/mL (Trichophyton rubrum): 17.3 ± 0.51 mm | IC50 ([1]; Homo sapiens, A549, 48 h): 12.6 ± 0.17 µM | IC50 ([2]; Homo sapiens, MCF7, 48 h): 13.1 ± 0.29 µM
